Experimental data from patent publication US5312831A, “Urethanes and ureas that induce cytokine production” (American Cyanamid Company, priority 1993, dated 1994).
“Also recorded” adds a separate entry of the source. Where two headings read alike, the source gives them in different places.

Key:
[1] = system: GCSF; assay: Serum GCSF production in mice (NFS-60 bioassay); type: in vivo, mouse; settings: for GCSF: 4 hours, 10 mice/group
Experimental: (§1) Description of Biological Assays Interleukin 6(IL-6) assay for structure function analysis--Test compounds are dissolved in water and administered subcutaneously in 0.2 ml to deliver a dose of 0.1-10 mg/kg. The less soluble compounds are first dissolved in 100% ethanol and then brought to the appropriate concentration in water. Four hours post injection, the mice are bled and the serum is retrieved. The IL-6 dependent cell line 7TDl is used to assay serial dilutions of sera for IL-6 content. 7TDl cells (1×10^4) are placed in microtiter wells and incubated at 37° C. for 72 hours with standard recombinant mouse IL-6 or with dilutions of serum to be tested. Over the last 6 hours, the cells are pulsed with ^3 H-Tdr (μci). Cells are then harvested and the degree of proliferation determined by the uptake of ^3 H-Tdr as measured by liquid scintillation spectrometry. The concentration of IL-6 in serum is calculated from standard curves utilizing recombinant IL-6 from R&D Systems Inc. and are reported in units of IL-6 activity as defined by the manufacturer.
Granulocyte colony stimulating factor (GCSF) assay--A bioassay for GCSF is performed in an identical fashion to the IL-6 assay except that the GCSF dependent cell line NFS-60 is used in place of the IL-6 dependent 7TDI cell line.
Mice (10/group) are given a single subcutaneous injection of test compoun
and bled 4 hours later. GCSF levels in serum are determined by bioassay
using the GCSF dependent cell line NFS60.

[2] = system: neutrophils; assay: Oral dosing: neutrophil recovery in 5-FU treated mice; type: in vivo, mouse; settings: for Neutrophils/cu. mm.: day 6 after 5-FU 150 mg/kg, 0 dose 178 ± 64
Experimental: (§2) Circulating Neutrophil Assay--Mice are treated with 5-FU (150 mg/kg) and beginning 24 hrs. later, treated daily with the test compound. Mice are bled daily by retroorbital puncture in heparinized capillary tubes. Circulating WBC counts are determined by Coulter counter. Blood smears are stained with Wright-Geimsa solution and the percentage circulating neutrophils determined by differential counting under a microscope.
(§3) 5-Fluorouracil (5-FU) Induced Neutropenia In Mice--Mice are treated ip with 150 mg/kg of the chemotherapy agent 5-FU which induces a severe loss of neutrophils in the peripheral blood 5-6 days later. Twenty-four hrs. after the dose, treatment with the test compounds is initiated. The effect of the test compounds on recovery of neutrophil progenitor cells in the bone marrow is determined by the CFU-GM assay. The recovery of circulating neutrophils is followed by differential staining of the peripheral blood.
Groups of 5 mice are treated with 150 mg/kg of 5-FU. One day later, daily oral dosing with test compounds begins and continues for 10 days. […]

[3] = system: neutrophils; assay: Neutrophil recovery in 5-FU treated mice; type: in vivo, mouse; settings: for Neutrophils/cu. mm.: day 7 post 5FU 150 mg/kg, 10 mice/group, vehicle 157 ± 52
Experimental: as §2, §3
*Data from 10 mice/group on day 7 post treatment with 150 mg/kg of 5FU.
Beginning 24 hrs. after 5FU dose, mice were treated daily with test
compound at concentrations indicated. Neutrophil count for normal mice (n
**Mice treated with 5FU and vehicle only.

[4] = system: IL-6; assay: Serum IL-6 production in mice after single s.c. injection (7TD1 bioassay); type: in vivo, mouse; settings: serum 4 h post injection
Experimental: as §1

[5] = system: bone marrow CFU-GM; assay: Bone marrow CFU-GM in 5-FU treated mice; type: in vivo, mouse
Experimental: Colony forming assays Granulocyte-Macrophage (CFU-GM)--Mice are treated with 150 mg/kg of 5-Fu and treatment with test compound begins 24 hrs. later. On consecutive days, mice are killed by cervical dislocation and the femurs removed under sterile conditions. Femurs are flushed with 1 ml of ice cold medium (Iscove's supplemented with 20% FCS, 1% penicillin-streptomycin, 1% glutamine and 5×10^-5 M 2-mercaptoethanol). Bone marrow cells (5×10^5) are then plated in 12×75 mm tissue culture plates in 3 ml of warm ararose (3%) in Iscove's medium with 100 Units/ml of recombinant mouse GM-CSF purchased from Genzyme (Boston, Mass.). Plates are incubated for 7 days at 37° C. in 5% CO2. After 7 days, colonies of 50 cells or greater are enumerated under a dissecting microscope. 5-Fluorouracil (5-FU) Induced Neutropenia In Mice--Mice are treated ip with 150 mg/kg of the chemotherapy agent 5-FU which induces a severe loss of neutrophils in the peripheral blood 5-6 days later. Twenty-four hrs. after the dose, treatment with the test compounds is initiated. The effect of the test compounds on recovery of neutrophil progenitor cells in the bone marrow is determined by the CFU-GM assay. […]

[6] = system: IL-6; assay: Serum IL-6 in 5-FU treated monkeys; type: in vivo, cynomolgous monkeys
Experimental: (§4) Groups of 3 cynomolgous monkeys are treated with 5FU at 125 mg/kg and
(§5) beginning 24 hours later treated with test compound s.c. at 0.05 mg/kg.
(§6) The data reported are from sera taken 4 hours after test compound

[7] = system: bone marrow progenitor cells; assay: Delta assay: expansion of bone marrow progenitor cells in vitro, with c-kit ligand (KL); type: cell-based, mouse; settings: for fold induction at 0.5 µg/mL: Mus musculus, Bone marrow cell, 168 h, 7 day in vitro incubation, read-out: Fold Increase in CFU
Experimental: Delta Assay--Mice are treated with a single dose of 5-FU (150 mg/kg ip). Twenty-four hours later, bone marrow cells are removed and split into 2 aliquots. […] After 14 days, the number of colonies is determined (CFU-1). A second aliquot of cells is placed in liquid culture with single growth factors or drugs or combinations of each to assess the ability of these agents to expand the colony forming cell pool. After 7 days in liquid culture, these cells are harvested and plated in soft agar with IL-1 and GM-CSF as with the first aliquot. After 14 days the number of colonies in the second aliquot is determined (CFU-2). The ratio or delta is calculated as CFU-2/CFU-1 and this ratio is used to ascertain the ability of the growth factors and/or drugs used in the liquid phase to induce growth of the colony forming cells (CFU) or differentiation of pre-CFU to CFU.
Bone marrow cells from 5-FU treated mice are used to enrich for early progenitor cells. The cells are split into 2 aliquots as described in the methods section for the "delta assay." The fold increase is determined by measuring the effect of a 7 day in vitro incubation of the cells with tissue culture medium plus test compound and/or growth factor KL on colony forming dells (CFU). The number of CFUs are then compared with colony formation of the fresh bone marrow cells that were not incubated in vitro to determine the fold increase. Test compound is used in vitro at 0.5 μg/ml.

[8] = system: GCSF; assay: Serum GCSF in 5-FU treated monkeys; type: in vivo, cynomolgous monkeys
Experimental: as §4, §5, §6

[9] = 0.05 mg/kg s.c., 5FU 125 mg/kg, sera 4 hours after treatment, 5-FU only 0

## CCCCCCC(=O)N[C@@H](C(=O)O)[C@@H](C)OC(=O)N[C@@H](CCC[C@@H](N)C(=O)O)C(=O)N[C@H](C)C(=O)O [Example 28, [R-(R*,R*)]-N-(R)-6-carboxy-N^2-[[2-carboxy-1-methyl-2-[(1-oxoheptyl)amino]ethoxy]carbonyl]-L-lysyl]-D-Alanine]
[1]; 1.56 μg/kg single s.c.
  GCSF: 442 ± 52 pg/mL
[1]; 3.12 μg/kg single s.c.
  GCSF: 470 ± 59 pg/mL
[1]; 6.25 μg/kg single s.c.
  GCSF: 644 ± 267 pg/mL
[1]; 12.50 μg/kg single s.c.
  GCSF: 1342 ± 289 pg/mL
[1]; 25.00 μg/kg single s.c.
  GCSF: 3352 ± 907 pg/mL
[1]; 50.00 μg/kg single s.c.
  GCSF: 1249 ± 138 pg/mL
[1]; injected mice
  GCSF induction in the serum of mice (in words): induce GCSF in the serum of injected mice
[2]; 0.1 mg/kg daily oral
  Neutrophils/cu. mm.: 81 ± 35 /cu. mm
[2]; 1 mg/kg daily oral
  Neutrophils/cu. mm.: 765 ± 209 /cu. mm
[2]; 10 mg/kg daily oral
  Neutrophils/cu. mm.: 1391 ± 350 /cu. mm
[2]; oral
  neutrophil recovery in 5-FU treated mice when given orally (in words): active in accelerating neutrophil recovery
[3]; 1.56 μg/kg daily
  Neutrophils/cu. mm.: 722 ± 199 /cu. mm.
[3]; 3.12 μg/kg daily
  Neutrophils/cu. mm.: 424 ± 115 /cu. mm.
[3]; 6.25 μg/kg daily
  Neutrophils/cu. mm.: 758 ± 249 /cu. mm.
[3]; 12.50 μg/kg daily
  Neutrophils/cu. mm.: 1314 ± 267 /cu. mm.
[3]; 25.00 μg/kg daily
  Neutrophils/cu. mm.: 1804 ± 408 /cu. mm.
[3]; 50.00 μg/kg daily
  Neutrophils/cu. mm.: 1716 ± 284 /cu. mm.
[3]; 100.00 μg/kg daily
  Neutrophils/cu. mm.: 2613 ± 364 /cu. mm.
[3]; mouse, in vivo
  neutrophil recovery in 5-FU treated mice (in words): enhances the recovery of peripheral blood neutrophils; also recorded: induce neutrophil recovery in 5-FU treated mice
[4]; 0.1 mg/kg s.c.
  IL-6: 4802 ± 804 U/ml
[4]; 1.0 mg/kg s.c.
  IL-6: 3844 ± 482 U/ml
[4]; 10.0 mg/kg s.c.
  IL-6: 1718 U/ml
[5]; 0.1 mg/kg daily s.c., day 3 after 5FU 150 mg/kg, normal 30184 ± 3677, 5-FU only 805 ± 512
  CFU-GM/femur: 6055 ± 534 CFU-GM/femur
[5]; 5-FU treated mice
  CFU-GM in the bone marrow (in words): increase of CFU-GM
[6]; [9]
  Serum IL-6: 2579 ± 318 Units/ml
[6]; monkey, in vivo
  IL-6 production in the serum of 5-FU treated primates (in words): induces IL-6 and GCSF production
[7]; KL + test compound (0.5 μg/ml)
  fold induction at 0.5 µg/mL: 158
[7]; test compound alone, 0.5 μg/ml, medium alone 0
  fold induction at 0.5 µg/mL: 1.3
[7]; in vitro
  synergy with c-kit ligand (KL) on growth of bone marrow progenitor cells (in words): acts synergistically
[8]; [9]
  Serum GCSF: 3962 ± 2178 pg/mL
[8]; monkey, in vivo
  GCSF production in the serum of 5-FU treated primates (in words): induces IL-6 and GCSF production
